# Measured values: patent US11135214B2, “Methods for enhancing the bio availability and exposure of a voltage-gated potassium channel opener” (priority 2018, dated 2021)
# What was measured:
# [1] = First-in-human SAD and MAD study, safety and tolerability; format: in vivo; conditions: for Cmax: human, plasma, oral, read-out: individual Cmax levels up to which well tolerated
# Procedure: A first-in-human study was conducted to evaluate the safety, tolerability and pharmacokinetics (PK) of single and multiple ascending doses (SAD and MAD) of oral Compound A.
# In the SAD Phase, 32 healthy volunteers were randomized (3:1) to Compound A (5, 15, 20, 25 or 30 mg) or placebo. The study featured an adaptive design. A crossover food effect cohort (N=10) was also completed with single doses of 20 mg. A sub-set of 8 male subjects were also assessed with Transcranial Magnetic Stimulation (TMS) for effects on cortical excitability (see Examples 4 and 5).
# Repeat doses of Compound A (15 mg QD) were evaluated in a fasted and fed state over 7 and 10 days, respectively. Repeat doses of Compound A (25 mg QD) were also evaluated in a fed state over 10 days.
# Compound A was formulated as an immediate release capsule. Serial plasma PK samples were collected for all cohorts. Safety evaluations throughout the study included adverse event (AE) monitoring, clinical laboratory tests, vital signs, ECGs, physical examinations and Columbia-Suicide Severity Rating Scale.
# [2] = tested on: cortical excitability; assay: TMS crossover study, TMS-evoked EEG potentials (TEPs); format: in vivo, human; conditions: for N45 vs pre-dose: 4 h (p=0.03)
# Procedure: All 20 subjects underwent TMS-EMG and TMS-EEG sessions prior to dosing on Days 1 and 7 and at 2 and 4 h after dosing. […] For the 6 h timepoint, RMT was performed for 16 subjects, and AMT, EEG resting state, and TMS-EEG was performed for 8 subjects.
# Compound A-induced modulation of PD markers was evaluated as an effect of time (comparisons of 2, 4, and 6 h post-dose vs. pre-dose) and of concentration (using the post-dose measure taken during highest drug exposure vs. baseline).
# TMS-evoked EEG potentials (TEPs) were calculated by averaging artefact-free EEG trials in the different experimental conditions (Table 17).
# The following TEP components (P=positive, N=negative) in accordance with the literature were studied, value in parenthesis is the time of interest (TOI): P25 (15-35 ms), N45 (35-70 ms), P70 (70-80 ms), N100 (80-145 ms), and P180 (145-230 ms). TOIs were chosen on the basis of the grand-averaged TEPs and kept identical during the analysis of pre-dose and post-dose measurements and across conditions. To analyze drug-induced modulation of TEPs, we selected a region of interest (ROI) that was composed of 27 channels over and around the stimulation site (left M1) and the corresponding contralateral site (‘FC1’, ‘FC3’, ‘FC5’, ‘C1’, ‘C3’, ‘C5’, ‘CP1’, ‘CP3’, ‘CP5’, ‘P1’, ‘P3’, ‘P5’, ‘Cz’, ‘CPz’, ‘Pz’, ‘FC2’, ‘FC4’, ‘FC6’, ‘C2’, ‘C4’, ‘C6’, ‘CP2’, ‘CP4’, ‘CP6’, ‘P2’, ‘P4’, ‘P6’).
# To analyze significance of TEP amplitude modulations induced by Compound A, multiple dependent sample t-test comparisons (post-dose vs. pre-dose) were applied for each TOI in all the electrodes within the indicated ROI. To correct for multiple comparisons (i.e., electrodes, timepoints), we conducted a non-parametric cluster-based permutation analysis as implemented in FieldTrip.
# [3] = Open-label randomized two-period fed/fasted crossover study, plasma PK; conditions: human, in vivo
# Description: The study consisted of two Treatment Periods, Period 1 and Period 2. Each Treatment Period consisted of 7 days, with the dosing of Compound A occurring on Day 1. The two treatment periods were separated by a washout period of 10 days. The subjects were randomized into two groups. During Treatment Period 1, one group received an oral dose of Compound A while fasted and the other group received an oral dose of Compound A when fed. The group which fasted in Treatment Period 1 was fed in Treatment Period 2 and vice versa.
# On Day 1 of each Treatment Period, each subject orally received 20 mg of Compound A (4 capsules with 5 mg of Compound A in each capsule).
# During the fed period, following an overnight fast of at least 10 hours, a standard high fat, high calorie breakfast was given as per FDA guidance; the breakfast was given 30 minutes prior to the scheduled dosing time, and was completed 10 minutes before dosing. A representative breakfast included 2 slices of buttered toast, 2 fried eggs, 2 strips of bacon, 4 oz. of hash brown potatoes, and 8 oz. of whole milk.
# During the fasted period, dosing occurred after an overnight fast of at least 10 hours. No food was allowed for 4 hours post-dose in either the fed or fasted period. Water was allowed as desired except for one hour before and after dosing.
# For all subjects, blood samples for the determination of Compound A plasma concentration were collected at dosing (0.0 hours (time zero)) and at 0.5, 1.0, 1.5, 2.0, 3.0, 4.0, 6.0, 8.0, 12.0, 24.0, 32.0, 48.0 and 144.0 hours post-dose.
# [4] = Transcranial magnetic stimulation pilot study (RMT/AMT, TEPs, rEEG); conditions: male, human, in vivo
# Procedure: (§1) In a pilot study TMS was used to non-invasively determine whether Compound A (10, 15 and 20 mg) impacts cortical excitability. The TMS pilot study was designed to inform sample size calculation for a larger randomized, double-blind and placebo-controlled TMS cross-over study (N=20) with Compound A.
# (§2) Eight healthy, right-handed male subjects (aged 21-35 years, 62.4-95.4 kg) from a First-in-Human Phase 1 study were enrolled in this open-label TMS pilot study. RMT, TEPs and EEGs were recorded prior to Compound A, 2 and 4 h post dose. Spectral analysis was performed on resting EEGs. Single-subject level analyses were performed via multiple independent sample t-tests to determine effects of Compound A on TEP amplitudes. Multiple comparisons were accounted for using clusterbased permutation analysis.
# [5] = tested on: cortical excitability; assay: as above
# Procedure: as §1, §2
smiles,measurement,setting,value
"Cc1cc(N2CCc3cc(F)ccc3C2)cc(C)c1NC(=O)CC(C)(C)C [Compound A, N-[4-(6-fluoro-3,4-dihydro-1H-isoquinolin-2-yl)-2,6-dimethylphenyl]-3,3-dimethylbutanamide]",Cmax,[1]; multiple doses,≤ 107 ng/mL
same,Cmax,[1]; single doses,≤ 104 ng/mL
same,"SAEs, deaths, ECG or laboratory findings",[1]; single and multiple doses,"no SAEs, deaths, or clinically significant ECG or laboratory findings"
same,severity of the majority of AEs,"[1]; single and multiple doses, e.g. dizziness, sedation",mild or moderate
same,safety and tolerability,[1]; single doses of up to 30 mg and multiple doses of 25 mg QD,safe and well-tolerated
same,"Modulation of TEPs, N45",[2]; 2 h after dosing vs pre-dose,Not significant
same,"Modulation of TEPs, P180",[2]; 2 h after dosing vs pre-dose,Not significant
same,N15-P25 complex vs pre-dose,"[2]; all available subjects, 2 h (p=0.006) and 4 h (p=0.01)",decreased
same,P180 vs pre-dose,"[2]; all available subjects, 4 h (p=0.02)",significantly suppressed
same,N45 vs pre-dose,[2]; all available subjects,significantly suppressed
same,TEP amplitude P180,"[2]; concentration analysis N=16, highest plasma concentration, printed 2.2 vs 3.0 μV, p<0.01",2.2 μV
same,peak-to-peak amplitude of early complex N15-P25 (15 to 35 ms),"[2]; concentration analysis N=16, highest plasma concentration, printed 4.5 vs 6.0 μV, p<0.05",4.5 μV
same,TEP amplitude N45,"[2]; concentration analysis N=16, highest plasma concentration, printed −2.3 vs −3.0 μV, p<0.01",−2.3 μV
same,N15-P25 complex vs pre-dose,"[2]; subjects with drug exposure, 2 h (p=0.008) and 4 h (p=0.02)",decreased
same,P180 vs pre-dose,"[2]; subjects with drug exposure, 4 h (p=0.004)",significantly suppressed
same,N45 vs pre-dose,[2]; subjects with drug exposure,significantly suppressed
same,N100 vs pre-dose,"[2]; subjects with drug exposure, 4 h (p=0.04)",significantly suppressed
same,concentration at 3 h,"[3]; both sexes, fed, 20 mg oral, 3.0 h, individual subjects, read-out: Compound A Concentration",104 ng/mL
same,Cmax,"[3]; both sexes, fed, 20 mg oral, individual subjects",104 ng/mL
same,"bioavailability and exposure, fed compared to fasted conditions","[3]; po, 20 mg",significantly enhanced
same,concentration at 4 h,[4]; 10 mg,23.1 ng/mL
same,concentration at 4 h,[4]; 15 mg,36.3 ng/mL
same,concentration at 4 h,[4]; 20 mg,50 ± 10 ng/mL
same,TEP modulation,[5]; 10 mg (N=2) and 15 mg (N=3),did not show significant and robust TEP modulation
same,AMT,"[5]; 10 mg, N=2",did not change AMT
same,SICI assessed with TMS/EMG,"[5]; 10, 15, 20 mg",but not SICI
same,motor thresholds assessed with TMS/EMG,"[5]; 10, 15, 20 mg, 2 and 4 hours post-drug",increased
same,RMT increase from baseline,[5]; 4 h post 20 mg,4.3±0.6%
same,theta power in rEEG,[5]; 4 h post 20 mg,increased
same,"suppression of TEP amplitude, peak at 180 ms (P180)","[5]; 4 h post 20 mg, p<0.01, N=3",1.92±0.03 μV
